Source: patent US7670967B2, “Dispersible alcohol/cleaning wipes via topical or wet-end application of acrylamide or vinylamide/amine polymers” (Kimberly-Clark Worldwide, Inc., priority 2004, dated 2010)

Assay: Solubility parameter (Hildebrand parameter) values for selected solvents and polyacrylamide
Conditions: solvent with polyacrylamide homopolymer, δ 21
Description: Determination of a suitable lower level alcohol, glycol, ketone, or mixtures thereof may be conducted using the solubility. The solubility of an amorphous polymer in a given solvent is governed by the Gibbs free energy of mixing given by Equation (1): ΔGm=ΔHm−TΔSm (1 ) ΔGm is the free energy change of the system upon mixing. ΔHm and ΔSm are the enthalpy and entropy change upon mixing, respectively, and T is the absolute temperature. When the free energy of mixing is less than zero (ΔGm<0) for a given polymer and solvent (or solvent mixture thereof), a single-phase system is obtained and mixing occurs spontaneously.
Solubility parameters, originally developed to describe enthalpy of mixing with simple nonpolar solvents, have been extended to describe the interactions of polymers and polar solvent. The enthalpy of mixing of such systems is expressed in a form like Equation (2):
[formula] […]
The units of δ may be difficult to rationalize. They are generally expressed as units of MPa½ or (cal/cm^3)^1/2. One simple way to understand these units is to note that Equation (4) calls for a solution in terms of a quantity of energy. It can be readily seen that substitution of δ values in terms of (cal/cm^3)^1/2 or MPa½ into Equation (4) results in a quantity of energy in terms of calories or joules, respectively, after unit cancellation (1 MPa=1 kJ/m^3). […]

## CC(C)=O [Acetone]
  (δ1 − δ2)^2 PAM (cohesive energy difference parameter): 123.2

## n-Propyl alcohol
  (δ1 − δ2)^2 PAM (cohesive energy difference parameter): 82.8
